Results from patent US12509422B2, “Bisamide compound and application thereof” (METISA BIOTECHNOLOGY CO., LTD, priority 2019, dated 2025).

System: Chilo suppressalis
Experiment: Insecticidal activity against Chilo suppressalis, sprayed Oryza sativa seedlings, stalks fed to larvae
Format: in vivo
Settings: parallel comparison test; for pest or weed control at 1 µg/mL / pest or weed control at 10 µg/mL: Chilo suppressalis, 72 h, 3 days after the treatment; for pest or weed control at 1 µg/mL: 1 mg/L, read-out: Lethality rate (%, 3 days after the treatment) 1 mg/L; for pest or weed control at 10 µg/mL: 10 mg/L, read-out: Lethality rate (%, 3 days after the treatment) 10 mg/L
Experimental: The compounds of the invention were determined for the insecticidal activities against several insects. The determination method was as follows:
After being dissolved in a mixed solvent of acetone/methanol (1:1), the test compound was diluted with water containing 0.1% (wt) Tween 80 to the desired concentration.
With Leucania separata, Plutella xylostella, and Chilo suppressalis as targets, airbrush spray method was used for the determination of activity.
Determination method: 1) Preparation of Oryza sativa seedlings: Oryza sativa was cultivated in a constant temperature room (a temperature of 26-28° C., a relative humidity of about 60-80%, and a light illumination of 16hL:8hD) in a small plastic cup with a diameter of 4.5 cm and a height of 4 cm, and when the Oryza sativa grew up to the 4-5 leaf stage, robust and consistent Oryza sativa seedlings were selected for chemical treatment, and 3 repetitions were performed for each treatment. 2) Preparation for test insects: Chilo suppressalis at 3rd instar larvae were raised continuously indoors. 3) The Oryza sativa stems were sprayed and insects were introduced. Spraying was performed uniformly on the whole plant of the Oryza sativa seedlings, with 15 ml of compound solution for each treatment. The blank control was treated first, and then the above operations were repeated in the order of the test concentration from low to high. After the Oryza sativa seedlings were sprayed, they were placed in a cool place to dry the liquid, and about 5 cm of stalks at the base of the stems were cut and fed to the test insects. A glass petri dish with a diameter of 90 mm was placed with filter paper at the bottom of the dish, and then was moisturized by adding water. After that, about 5 rice stalks and 10 larvae were placed in each dish, and the petri dish was sealed with a non-woven fabric and placed in a constant temperature room for cultivation. The number of remaining live insects was investigated 3 days after the treatment.
The compounds 1, 3, 7, 11 of this disclosure and the comparative compounds were selected for a parallel comparison test of the insecticidal activity against Chilo suppressalis (3 days after the treatment), through a same determination method as that described above.

SMILES	pest or weed control at 1 µg/mL [%]	pest or weed control at 10 µg/mL [%]	Lethality rate (%, 3 days after the treatment) 0.25 mg/L [%]	Lethality rate (%, 3 days after the treatment) 0.5 mg/L [%]
O=C(Nc1c(Br)cc(C(F)(C(F)(F)F)C(F)(F)F)cc1Br)c1cccc(N(CC2CC2)C(=O)c2cccnc2)c1F [Compound 1-2]	0	0	–	–
N#Cc1ccc(C(=O)N(CC2CC2)c2cccc(C(=O)Nc3c(Br)cc(C(F)(C(F)(F)F)C(F)(F)F)cc3C(F)(F)F)c2F)cc1 [Compound 4-1]	93.3	100	16.67	53.33
O=C(Nc1c(Br)cc(C(F)(C(F)(F)F)C(F)(F)F)cc1C(F)(F)F)c1cccc(N(CC2CC2)C(=O)c2ccc(Cl)nc2)c1F [Compound 5-2]	33.3	70	–	0
O=C(Nc1c(Br)cc(C(F)(C(F)(F)F)C(F)(F)F)cc1C(F)(F)F)c1cccc(N(CC2CC2)C(=O)c2ccc(F)cc2)c1F [Compound 2-1]	96.7	100	23.33	66.67
O=C(Nc1c(Br)cc(C(F)(C(F)(F)F)C(F)(F)F)cc1C(F)(F)F)c1cccc(N(CC2CC2)C(=O)c2ccc(C(F)(F)F)cc2)c1F [Compound 3-1]	56.7	100	0	26.67
O=C(Nc1c(Br)cc(C(F)(C(F)(F)F)C(F)(F)F)cc1C(F)(F)F)c1cccc(N(CC2CC2)C(=O)c2cccnc2)c1F [Compound 5-1]	0	16.7	–	–
N#Cc1ccc(C(=O)N(CC2CC2)c2cccc(C(=O)Nc3c(Br)cc(C(F)(C(F)(F)F)C(F)(F)F)cc3C(F)(F)F)c2F)cn1 [Compound 11]	100	100	100	100
O=C(Nc1c(Br)cc(C(F)(C(F)(F)F)C(F)(F)F)cc1C(F)(F)F)c1cccc(N(CC2CC2)C(=O)c2ccc(F)nc2)c1F [Compound 3]	100	100	100	100
O=C(Nc1c(Br)cc(C(F)(C(F)(F)F)C(F)(F)F)cc1Br)c1cccc(N(CC2CC2)C(=O)c2ccc(F)cc2)c1F [Compound 1-1]	50	100	0	13.33
